Reference: patent US9663449B2, “Lipid containing formulations” (ARBUTUS BIOPHARMA CORPORATION, priority 2006, dated 2017)

Test system: Factor VII
Assay: In vivo Factor VII silencing assay, serum Factor VII by chromogenic kit
Set-up: species or system C57BL/6 mice
Details: 2 mg/kg siRNA; FIG. 1; suggested, 5 tail and/or 6 tail, most abundant species in ND98 6:1 preparation
Experimental: Applicants have discovered that certain polyamine lipid moieties provide desirable properties for administration of nucleic acids, such as siRNA. For example, in some embodiments, a lipid moiety is complexed with a Factor VII-targeting siRNA and administered to an animal such as a mouse. The level of secreted serum Factor VII is then quantified (24 h post administration), where the degree of Factor VII silencing indicates the degree of in vivo siRNA delivery. Accordingly, lipids providing enhanced in vivo delivery of a nucleic acid such as siRNA are preferred. In particular, Applicants have discovered polyamines having substitutions described herein can have desirable properties for delivering siRNA, such as bioavailability, biodegradability, and tolerability.
C57BL/6 mice received tail vein injections of saline or various lipid formulations. Lipid-formulated siRNAs are administered at varying doses in an injection volume of 10 μL/g animal body weight. Twenty-four hours after administration, serum samples are collected by retroorbital bleed. Serum Factor VII concentrations are determined using a chromogenic diagnostic kit (Coaset Factor VII Assay Kit, DiaPharma) according to manufacturer protocols.
The effectiveness of lipid compositions can be tested by determining the relative ability of a lipid to deliver an siRNA moiety to a target. […]

SMILES: CCCCCCCCCCCCNC(=O)CCN(CCC(=O)NCCCCCCCCCCCC)CCN(CCC(=O)NCCCCCCCCCCCC)CCN(CCC(=O)NCCCCCCCCCCCC)CCN(CCC(=O)NCCCCCCCCCCCC)CCC(=O)NCCCCCCCCCCCC [Compound 5]
- FVII silencing, active lipid species: active species
